Values belong to the compound of their own block, whether it stands above or below them.
How the values were obtained:
[1] = in vivo; cited from earlier work
[2] = cited from earlier work
[3] = Mice PK study, oral dosing; type: in vivo; conditions: CD-1 mouse, 10 mg/kg; for AUC(0-t) / bioavailability / half-life: plasma; for bioavailability: read-out: Bioavailabilty; for half-life: read-out: t ½ (converted)
Protocol: Biological Example 4: Mice PK Study
The pharmacokinetics of compounds were evaluated in CD-1 mouse via Intravenous and Oral Administration. The IV dose was administered as a slow bolus in the Jugular vein, and oral doses were administered by gavage. The formulation for IV dosing was 5% DMSO in 20% HPBCD in water, and the PO formulation was 2.5% DMSO, 10% EtOH, 20% Cremphor EL, 67.5% D5W. The PK time point for the IV arm was 5, 15, 30 min, 1, 2, 4, 6, 8, 12, 24 hours post dose, and for PO arm was 15, 30 min, 1, 2, 4, 6, 8, 12, 24 hours post dose. Approximately 0.03 mL blood was collected at each time point. Blood of each sample was transferred into plastic micro centrifuge tubes containing EDTA-K2 and collect plasma within 15 min by centrifugation at 4000 g for 5 minutes in a 4° C. centrifuge. Plasma samples were stored in polypropylene tubes. The samples were stored in a freezer at −75±15° C. prior to analysis. Concentrations of compounds in the plasma samples were analyzed using a LC-MS/MS method. WinNonlin (Phoenix™, version 6.1) or other similar software was used for pharmacokinetic calculations. The following pharmacokinetic parameters were calculated, whenever possible from the plasma concentration versus time data: IV administration: C0, CL, Vd, T1/2, AUCinf, AUClast, MRT, Number of Points for Regression; PO administration: Cmax, Tmax, T1/2, AUCinf, AUClast, F %, Number of Points for Regression. The pharmacokinetic data was described using descriptive statistics such as mean, standard deviation. Additional pharmacokinetic or statistical analysis was performed at the discretion of the contributing scientist, and was documented in the data summary.

H1963 = test: In vitro anti-proliferation assay (ATPlite), small cell lung cancer cell line H1963; type: cell-based; conditions: 5% FBS, about 72 hours
Protocol: (§1) Biological Example 3: In Vitro Anti-Proliferation Assay in Small Cell Lung Cancer (SCLC) Cell Line
(§2) Cell antiproliferation was assayed by PerkinElmer ATPlite™ Luminescence Assay System. Briefly, the various test cancer cell lines were plated at a density of about 1×10^4 cells per well in Costar 96-well plates, and were incubated with different concentrations of compounds for about 72 hours in medium supplemented with 5% FBS. One lyophilized substrate solution vial was then reconstituted by adding 5 mL of substrate buffer solution, and was agitated gently until the solution was homogeneous. About 50 μL of mammalian cell lysis solution was added to 100 μL of cell suspension per well of a microplate, and the plate was shaken for about five minutes in an orbital shaker at ˜700 rpm. This procedure was used to lyse the cells and to stabilize the ATP. Next, 50 μL substrate solution was added to the wells and microplate was shaken for five minutes in an orbital shaker at ˜700 rpm. Finally, the luminescence was measured by a PerkinElmer TopCount® Microplate Scintillation Counter. Such assays, carried out with a range of doses of test compounds, allowed the determination of the cellular anti-antiproliferative IC50 of the compounds of the present invention.
(§3) Cisplatin, the standard of Care of small cell lung cancer cell lines was used as the positive control drug.

H889 = test: In vitro anti-proliferation assay (ATPlite), small cell lung cancer cell line H889; type: cell-based; conditions: 5% FBS, about 72 hours
Protocol: as §1, §2, §3

H146 = test: In vitro anti-proliferation assay (ATPlite), small cell lung cancer cell line H146; type: cell-based; conditions: 5% FBS, about 72 hours
Protocol: as §1, §2, §3

Bcl-w = target: T1, Bcl-w (Homo sapiens, UniProt Q92843); conditions: cited from earlier work
T1 sequence (Q92843 1-193): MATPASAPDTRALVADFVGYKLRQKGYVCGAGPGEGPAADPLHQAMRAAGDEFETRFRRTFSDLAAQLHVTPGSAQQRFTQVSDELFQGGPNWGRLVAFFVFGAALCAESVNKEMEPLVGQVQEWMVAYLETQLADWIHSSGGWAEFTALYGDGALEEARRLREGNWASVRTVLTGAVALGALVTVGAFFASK

circulating platelets = conditions: clinical trial; dose-limiting thrombocytopenia; cited from earlier work
H345 xenograft = conditions: 100 mg/kg/day, H345 xenograft model; cited from earlier work
SCLC H146 cell line = conditions: read-out: IC50 against SCLC H146 cell line; cited from earlier work
[4] = system: xenograft models of small-cell lung cancer and acute lymphoblastic leukemia; conditions: oral administration, alone; cited from earlier work
MV411 = test: In vitro anti-proliferation assay (ATPlite), MV411; type: cell-based; conditions: Homo sapiens, MV4-11; 5% FBS, about 72 hours
Protocol: as §1, §2

[5] = system: BCL-2-dependent acute lymphoblastic leukemia (ALL) cell line RS4;11; test: In vitro anti-proliferation assay (ATPlite) in RS4;11; type: cell-based; conditions: Homo sapiens; RS4;11, 5% FBS, about 72 hours; read-out: IC50, RS4; 115% FBS
Protocol: Biological Example 2: In Vitro Anti-Proliferation Assay in BCL-2-Dependent Acute Lymphoblastic Leukemia (ALL) Cell Line RS4;11
as §2, with “with 5% FBS or 10% normal human serum (NHS). One lyophilized” for “with 5% FBS. One lyophilized”, “shaker at −700 rpm. This” for “shaker at ˜700 rpm. This”, “present invention. The following table lists the IC50 values of certain compounds of the invention.” for “present invention.”

Toledo = test: In vitro anti-proliferation assay (ATPlite), Toledo; type: cell-based; conditions: Homo sapiens, 5% FBS, about 72 hours
Protocol: as §1, §2

Granta = test: In vitro anti-proliferation assay (ATPlite), Granta; type: cell-based; conditions: 5% FBS, about 72 hours
Protocol: as §1, §2

RS4;11 xenografts = conditions: single dose of 100 mg/kg; cited from earlier work
Mcl-1 = Mcl-1 (Homo sapiens, UniProt Q07820); conditions: cited from earlier work
RS4;11 cells = conditions: cited from earlier work
CLL = conditions: read-out: average EC50, apoptosis in CLL; cited from earlier work

Mcl-1, sequence (Q07820 whole entry): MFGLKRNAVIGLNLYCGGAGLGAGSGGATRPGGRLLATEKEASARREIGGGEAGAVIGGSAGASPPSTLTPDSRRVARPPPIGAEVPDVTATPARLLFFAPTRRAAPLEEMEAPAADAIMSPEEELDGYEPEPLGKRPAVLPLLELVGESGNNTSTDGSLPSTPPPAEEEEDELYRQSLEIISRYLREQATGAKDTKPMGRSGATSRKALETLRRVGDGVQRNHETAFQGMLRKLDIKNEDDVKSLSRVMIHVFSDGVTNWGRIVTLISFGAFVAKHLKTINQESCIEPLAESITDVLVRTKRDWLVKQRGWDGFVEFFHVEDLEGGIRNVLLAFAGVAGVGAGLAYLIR

SMILES: CN(C)CC[C@H](CSc1ccccc1)Nc1ccc(S(=O)(=O)NC(=O)c2ccc(N3CCN(Cc4ccccc4-c4ccc(Cl)cc4)CC3)cc2)cc1[N+](=O)[O-] [ABT-737]
- oral bioavailability [1]: not orally bioavailable
- aqueous solubility [2]: low aqueous solubility

SMILES: CC1(C)CCC(CN2CCN(c3ccc(C(=O)NS(=O)(=O)c4ccc(NC[C@@H]5COCCO5)c([N+](=O)[O-])c4)c(N4CCCOc5nc6[nH]ccc6cc54)c3)CC2)=C(c2ccc(Cl)cc2)C1 [Example 8, 4-(4-[[2-(4-chlorophenyl)-4,4-dimethylcyclohex-1-en-1-yl]methyl]piperazin-1-yl)-N-[4-([[(2R)-1,4-dioxan-2-yl]methyl]amino)-3-nitrobenzenesulfonyl]-2-[14-oxa-2,4,10-triazatricyclo[7.5.0.0^[3,7]]tetradeca-1(9),2,5,7-tetraen-10-yl]benzamide]
- AUClast(h * ng/mL) [3]: 5,714 h * ng/mL
- Bioavailabilty [3]: 44%
- t ½ [3]: 2.3 h
- IC50 (H1963): 5.3 nM
- IC50 (H889): 0.7 nM
- IC50 (H146): 50 nM

SMILES: CC1(C)CCC(CN2CCN(c3ccc(C(=O)NS(=O)(=O)c4ccc(NC[C@H]5COCCO5)c([N+](=O)[O-])c4)c(N4CCCOc5nc6[nH]ccc6cc54)c3)CC2)=C(c2ccc(Cl)cc2)C1 [Example 9, 4-(4-[[2-(4-chlorophenyl)-4,4-dimethylcyclohex-1-en-1-yl]methyl]piperazin-1-yl)-N-[4-([[(2S)-1,4-dioxan-2-yl]methyl]amino)-3-nitrobenzenesulfonyl]-2-[14-oxa-2,4,10-triazatricyclo[7.5.0.0^[3,7]]tetradeca-1(9),2,5,7-tetraen-10-yl]benzamide]
- AUClast(h * ng/mL) [3]: 8,168 h * ng/mL
- Bioavailabilty [3]: 64%
- t ½ [3]: 2.3 h
- IC50 (H1963): 4.7 nM
- IC50 (H889): 0.7 nM
- IC50 (H146): 33 nM

SMILES: N.N.[Cl][Pt][Cl] [Cisplatin, reference compound]
- IC50 (H1963): 1670 nM
- IC50 (H889): 7080 nM
- IC50 (H146): 4590 nM

SMILES: CC1(C)CCC(CN2CCN(c3ccc(C(=O)NS(=O)(=O)c4ccc(NCC5CCOCC5)c([N+](=O)[O-])c4)c(N4CCCOc5nc6[nH]ccc6cc54)c3)CC2)=C(c2ccc(Cl)cc2)C1 [Example 2, 4-(4-((4′-chloro-5,5-dimethyl-3,4,5,6-tetrahydro-[1,1′-biphenyl]-2-yl)methyl)piperazin-1-yl)-2-(3,4-dihydro-2H-pyrrolo[3′,2′:5,6]pyrido[2,3-b][1,4]oxazepin-1(7H)-yl)-N-((3-nitro-4-(((tetrahydro-2H-pyran-4-yl)methyl)amino)phenyl)sulfonyl)benzamide]
- IC50 (MV411): 1.6 nM
- IC50 [5]: 0.12 nM
- AUC(0-t) [3]: 9300 ng·h/mL
- bioavailability [3]: 49%
- half-life [3]: 4.3 h
- IC50 (Toledo): 8.1 nM
- IC50 (H1963; Homo sapiens, NCI-H1963): 5.6 nM
- IC50 (H889; Homo sapiens, NCI-H889): 1 nM
- IC50 (Granta): 3.5 nM
- IC50 (H146; Homo sapiens, NCI-H146): 64 nM

SMILES: CC1(C)CCC(CN2CCN(c3ccc(C(=O)NS(=O)(=O)c4ccc(NCC5(F)CCOCC5)c([N+](=O)[O-])c4)c(N4CCCOc5nc6[nH]ccc6cc54)c3)CC2)=C(c2ccc(Cl)cc2)C1 [Example 3, 4-(4-((4′-chloro-5,5-dimethyl-3,4,5,6-tetrahydro-[1,1′-biphenyl]-2-yl)methyl)piperazin-1-yl)-2-(3,4-dihydro-2H-pyrrolo[3′,2′:5,6]pyrido[2,3-b][1,4]oxazepin-1(7H)-yl)-N-((4-(((4-fluorotetrahydro-2H-pyran-4-yl)methyl)amino)-3-nitrophenyl)sulfonyl)benzamide]
- IC50 [5]: < 0.1 nM
- AUC(0-t) [3]: 4160 ng·h/mL
- bioavailability [3]: 30%
- half-life [3]: 2.6 h
- IC50 (H1963; Homo sapiens, NCI-H1963): 4.2 nM
- IC50 (H889; Homo sapiens, NCI-H889): 0.9 nM
- IC50 (H146; Homo sapiens, NCI-H146): 43 nM

Now from value to compound, other results behind:

- IC50 (H1963; Homo sapiens, NCI-H1963): 41.7 nM
- IC50 (H889; Homo sapiens, NCI-H889): 32.4 nM
- IC50 (H146; Homo sapiens, NCI-H146): 28 nM
SMILES: CC1(C)CCC(c2ccc(Cl)cc2)=C(CN2CCN(c3ccc(C(=O)NS(=O)(=O)c4ccc(N[C@H](CCN5CCOCC5)CSc5ccccc5)c(S(=O)(=O)C(F)(F)F)c4)cc3)CC2)C1 [ABT-263]
- Ki (Bcl-w): ≤ 1 nM
- number of circulating platelets (circulating platelets): rapid, concentration-dependent decrease in the number of circulating platelets
- TGI (H345 xenograft): 80%
- treated tumors indicating at least a 50% reduction in tumor volume (H345 xenograft): 20%
- IC50 (SCLC H146 cell line): 110 nM
- tumor regression [4]: complete tumor regressions

- IC50 (MV411): 20.1 nM
- IC50 [5]: 5.8 nM
SMILES: CC1(C)CCC(CN2CCN(c3ccc(C(=O)NS(=O)(=O)c4ccc(NCC5CCOCC5)c([N+](=O)[O-])c4)c(Oc4cnc5[nH]ccc5c4)c3)CC2)=C(c2ccc(Cl)cc2)C1 [ABT-199]
- maximal tumor growth inhibition (RS4;11 xenografts): 95%
- tumor growth delay (RS4;11 xenografts): 152%
- activity to Mcl-1 (Mcl-1): no activity
- IC50 (Toledo): 98.1 nM
- IC50 (Granta): 42.5 nM
- EC50 (RS4;11 cells): 8 nM
- EC50 (CLL): 3 nM

From patent US11279711B2, “Condensed heterocyclic derivates as BCL-2 inhibitors for the treatment of neoplastic diseases” (Newave Pharmaceutical Inc., priority 2017, dated 2022)
